Assay results from PMC6199744, “Development of Chemical Proteomics for the Folateome and Analysis of the Kinetoplastid Folateome” (ACS Infectious Diseases, 2018).

How the values were obtained:
DHFR-TS = DHFR-TS (Trypanosoma brucei brucei, UniProt Q27783); experiment: Individual bead pull down with competing free ligand; details: competing free ligand 100 μM; bead = immobilized compound of the row; T. brucei lysate; read-out: % Inhibition of protein binding to bead, DHFR-TS, T. brucei
Text: (§1) Antifolate compounds were immobilized onto NHS-activated sepharose beads/reverse sepharose beads through amide coupling via either an amino or carboxyl group (see Figure 3). The reaction was monitored by observing the disappearance of test compound by LCMS, after which the unreacted coupling sites were capped with NHS-acetate or aminoethanol.
(§2) Folate metabolizing enzymes are not highly abundant proteins,[19],[20] potentially making their identification by MS difficult. Beads will not only pull down the low abundant high affinity binders but also attract highly abundant, low affinity binders or so-called nonspecific binders. Sometimes, the nonspecific high abundant proteins can mask true binders. The target identification approach used in this study overcomes this issue by performing competition studies. Various concentrations of the free unmodified inhibitor (test compound) were preincubated with the lysate, prior to addition of the beads derivatized with immobilized compounds. Following washing of the bound proteins from the beads and tryptic digest, the peptides were labeled using the TMTs and then pooled. Differences in peptide abundance were analyzed by fragmentation of the isotope-coded isobaric tags in the MS/MS spectra (Figure 5).[9],[11],[12],[21] While the competition experiments with test compound confirm specific binding, it is also possible that some proteins will have a stronger binding interaction with the derivatized beads than the competing test compound, due to subtle differences in the interactions between the immobilized compound and the test compound with the target protein.

PTR-1 = PTR-1 (Trypanosoma brucei brucei, UniProt O76290); experiment: as above; details: competing free ligand 100 μM; bead = immobilized compound of the row; T. brucei lysate; read-out: % Inhibition of protein binding to bead, PTR-1, T. brucei
Chain of PTR-1 (O76290 entry or part of it): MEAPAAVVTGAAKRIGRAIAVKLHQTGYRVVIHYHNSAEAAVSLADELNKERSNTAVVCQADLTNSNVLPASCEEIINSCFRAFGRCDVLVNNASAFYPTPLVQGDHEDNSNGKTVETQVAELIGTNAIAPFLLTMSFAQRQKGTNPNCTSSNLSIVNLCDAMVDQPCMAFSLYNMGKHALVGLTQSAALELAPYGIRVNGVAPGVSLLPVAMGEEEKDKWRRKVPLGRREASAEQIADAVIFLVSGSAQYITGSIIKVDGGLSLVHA
Text: as §1, §2

[1] = biological target: PTERIDINE REDUCTASE (TB927.8.2210) (Trypanosoma brucei brucei, UniProt O76290); experiment: Multitargeted bead mixture competition; format: binding, T. brucei; details: T. brucei lysate
Chain of PTERIDINE REDUCTASE (TB927.8.2210) (O76290 entry or part of it): as above

[2] = biological target: DIHYDROFOLATE REDUCTASE-T[…] (TB427.07.5480) (Trypanosoma brucei brucei, UniProt Q27783); experiment: Multitargeted bead mixture competition; format: binding; details: T. brucei lysate
Chain of UniProt Q27783 (Q27783 whole entry): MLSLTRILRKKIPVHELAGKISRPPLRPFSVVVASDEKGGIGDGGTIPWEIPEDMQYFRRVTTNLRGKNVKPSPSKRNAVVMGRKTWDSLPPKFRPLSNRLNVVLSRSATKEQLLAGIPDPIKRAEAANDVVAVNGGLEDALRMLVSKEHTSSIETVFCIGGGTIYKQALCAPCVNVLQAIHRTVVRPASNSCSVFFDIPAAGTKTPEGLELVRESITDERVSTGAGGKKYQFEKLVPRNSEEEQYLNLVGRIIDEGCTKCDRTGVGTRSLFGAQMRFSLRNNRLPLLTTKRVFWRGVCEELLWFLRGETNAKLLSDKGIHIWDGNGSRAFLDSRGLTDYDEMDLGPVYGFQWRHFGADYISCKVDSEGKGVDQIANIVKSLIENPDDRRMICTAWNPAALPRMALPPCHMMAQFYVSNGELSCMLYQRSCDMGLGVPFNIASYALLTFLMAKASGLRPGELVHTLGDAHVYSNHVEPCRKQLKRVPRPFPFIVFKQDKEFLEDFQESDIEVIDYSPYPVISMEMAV

[3] = tested on: HYPOTHETICAL PROTEIN, CONSERVED (TB427.05.3680); experiment: Multitargeted bead mixture competition; format: binding; details: free ligand 100 μM, T. brucei lysate
TB427.04.1870 = experiment: Multitargeted bead mixture competition; format: binding; details: free ligand 100 μM, T. brucei lysate
[4] = tested on: CHOLINE KINASE (TB427TMP.18.0017); experiment: Multitargeted bead mixture competition; format: binding, T. brucei; details: multitargeted bead mixture; free ligand 100 μM; T. brucei lysate; TB427TMP.18.0017 CHOLINE KINASE
TB11.03.0290 = experiment: Multitargeted bead mixture competition; format: binding, T. brucei; details: multitargeted bead mixture; free ligand 100 μM; T. brucei lysate; TB11.03.0290
[5] = biological target: GLYCERALDEHYDE 3-PHOSPHATE DEHYDROGENASE, GLYCOSOM (TB427.06.4300) (Trypanosoma brucei brucei, UniProt P22512); experiment: Multitargeted bead mixture competition; format: binding, T. brucei
Chain of UniProt P22512 (P22512 whole entry): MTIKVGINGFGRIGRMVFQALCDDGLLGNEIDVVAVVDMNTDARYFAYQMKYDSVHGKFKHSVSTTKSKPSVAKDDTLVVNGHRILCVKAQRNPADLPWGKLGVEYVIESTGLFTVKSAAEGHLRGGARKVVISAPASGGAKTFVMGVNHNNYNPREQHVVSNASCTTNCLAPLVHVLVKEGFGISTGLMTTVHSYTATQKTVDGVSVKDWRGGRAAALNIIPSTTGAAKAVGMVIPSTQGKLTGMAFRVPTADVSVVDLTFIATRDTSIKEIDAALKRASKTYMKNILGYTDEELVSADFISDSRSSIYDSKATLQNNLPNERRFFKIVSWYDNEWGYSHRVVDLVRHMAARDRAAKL

[6] = tested on: PHOSPHATIDYLINOSITOL-4-PHOSPHATE 5-KINASE, PUTATIV (TB427.10.3890); experiment: Multitargeted bead mixture competition; format: binding; details: free ligand 100 μM, T. brucei lysate
TB927.8.6460 = experiment: Multitargeted bead mixture competition; format: binding, T. brucei; details: multitargeted bead mixture; free ligand 100 μM; T. brucei lysate; TB927.8.6460
TB09.211.1690 = experiment: Multitargeted bead mixture competition; format: binding; details: free ligand 100 μM, T. brucei lysate
TB927.7.1340 = experiment: Multitargeted bead mixture competition; format: binding; details: free ligand 100 μM, T. brucei lysate
TB927.8.6760 = experiment: Multitargeted bead mixture competition; format: binding; details: free ligand 100 μM, T. brucei lysate
[7] = tested on: HYPOTHETICAL PROTEIN, CONSERVED (TB427.03.2670); experiment: Multitargeted bead mixture competition; format: binding; details: free ligand 100 μM, T. brucei lysate
[8] = tested on: PEPTIDYL-PROLYL CIS-TRANS ISOMERASE (CYCLOPHILIN- (TB427TMP.211.1350)); experiment: Multitargeted bead mixture competition; format: binding; details: free ligand 100 μM, T. brucei lysate
[9] = tested on: BRANCHED-CHAIN AMINO ACID AMINOTRANSFERASE, PUTATI (TB427.02.4590); experiment: Multitargeted bead mixture competition; format: binding; details: free ligand 100 μM, T. brucei lysate
[10] = tested on: NGG1 INTERACTING FACTOR 3-LIKE (Tb427tmp.02.5000); format: binding; details: multitargeted bead mixture; free ligand 100 μM; T. brucei lysate; Tb427tmp.02.5000
[11] = tested on: ACETYLTRANSFERASE, PUTATIVE (Tb427.08.3310); experiment: Multitargeted bead mixture competition; format: binding; details: free ligand 100 μM, T. brucei lysate
[12] = tested on: HYPOTHETICAL PROTEIN, CONSERVED (Tb427.10.6100); experiment: Multitargeted bead mixture competition; format: binding; details: free ligand 100 μM, T. brucei lysate
[13] = tested on: SUCCINYL-COA SYNTHETASE ALPHA SUBUNIT, PUTATIVE (Tb427.03.2230); experiment: Multitargeted bead mixture competition; format: binding; details: free ligand 100 μM, T. brucei lysate
[14] = tested on: IRON/ASCORBATE OXIDOREDUCTASE FAMILY PROTEIN, PUTA (Tb427.02.6180); experiment: Multitargeted bead mixture competition; format: binding, T. brucei; details: multitargeted bead mixture; free ligand 100 μM; T. brucei lysate; Tb427.02.6180
[15] = tested on: PROTEIN KINASE, PUTATIVE (Tb427.03.1570); experiment: Multitargeted bead mixture competition; format: binding; details: free ligand 100 μM, T. brucei lysate
methylene-THF-reductase = methylene-THF-reductase (Homo sapiens, UniProt P42898); experiment: Multitargeted bead mixture competition, HeLa cell extract; format: binding; details: bead mixture; HeLa cell extract
Chain of methylene-THF-reductase (P42898 whole entry): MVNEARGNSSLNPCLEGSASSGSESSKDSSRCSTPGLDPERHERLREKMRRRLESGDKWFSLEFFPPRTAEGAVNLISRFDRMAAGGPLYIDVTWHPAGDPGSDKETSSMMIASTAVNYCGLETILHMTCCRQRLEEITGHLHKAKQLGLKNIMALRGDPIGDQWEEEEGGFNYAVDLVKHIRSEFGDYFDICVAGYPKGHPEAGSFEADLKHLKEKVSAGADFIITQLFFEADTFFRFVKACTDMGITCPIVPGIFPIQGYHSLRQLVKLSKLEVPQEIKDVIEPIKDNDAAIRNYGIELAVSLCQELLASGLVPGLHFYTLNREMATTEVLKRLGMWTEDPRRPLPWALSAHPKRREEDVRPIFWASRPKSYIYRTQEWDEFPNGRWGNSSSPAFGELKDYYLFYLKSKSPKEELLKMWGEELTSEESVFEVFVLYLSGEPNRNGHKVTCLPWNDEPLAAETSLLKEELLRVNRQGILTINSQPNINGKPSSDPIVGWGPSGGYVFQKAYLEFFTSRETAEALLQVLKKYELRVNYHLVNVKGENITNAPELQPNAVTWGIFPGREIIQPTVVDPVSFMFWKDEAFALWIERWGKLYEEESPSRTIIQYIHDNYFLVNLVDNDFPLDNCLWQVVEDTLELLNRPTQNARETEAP

[16] = tested on: LMJF.26.2560 (hypothetical conserved ATP binding protein); experiment: Individual MTX bead pull down; details: L. major
[17] = tested on: LMJF.30.2970 (glyceraldehyde-3-phosphate dehydrogenase, GAPDH); experiment: Individual MTX bead pull down; format: binding; details: L. major

Chain of DHFR-TS (Q27783 whole entry): as the sequence (Q27783 whole entry) above

SMILES: CN(Cc1cnc2nc(N)nc(N)c2n1)c1ccc(C(=O)N[C@@H](CCC(=O)O)C(=O)O)cc1 [MTX, methotrexate]
- inhibition at 100 µM (DHFR-TS): 95%
- inhibition at 100 µM (PTR-1): 90%
- competition for PTR1 (Figure 6) ([1]; bead mixture, compound 100 μM): competed for PTR1
- percentage of competition from bead binding ([1]; multitargeted bead mixture, free ligand 100 μM, TB927.8.2210 PTERIDINE REDUCTASE): 93%
- competition for DHFR-TS (Figure 6) ([2]; bead mixture, compound 100 μM): compete for DHFR-TS
- percentage of competition from bead binding ([2]; multitargeted bead mixture, free ligand 100 μM, TB427.07.5480 DHFR-TS): 85%
- percentage of competition from bead binding [3]: 69%
- percentage of competition from bead binding (TB427.04.1870): 58%
- percentage of competition from bead binding [4]: 57%
- percentage of competition from bead binding (TB11.03.0290): 57%
- binding to GAPDH (Tb427.06.4300) ([5]; bead mixture, T. brucei lysates): bound
- percentage of competition from bead binding ([5]; multitargeted bead mixture, free ligand 100 μM, T. brucei lysate, TB427.06.4300 GAPDH): 56%
- percentage of competition from bead binding [6]: 56%
- percentage of competition from bead binding (TB927.8.6460): 54%
- percentage of competition from bead binding (TB09.211.1690): 51%
- percentage of competition from bead binding (TB927.7.1340): 51%
- percentage of competition from bead binding (TB927.8.6760): 50%
- percentage of competition from bead binding [7]: 50%
- percentage of competition from bead binding [8]: 50%
- percentage of competition from bead binding [9]: 34%
- percentage of competition from bead binding [10]: 31%
- percentage of competition from bead binding [11]: 31%
- percentage of competition from bead binding [12]: 23%
- percentage of competition from bead binding [13]: 18%
- percentage of competition from bead binding [14]: 17%
- percentage of competition from bead binding [15]: 9%
- inhibition, methylene-THF-reductase (methylene-THF-reductase): 77%
- binding of LMJF.26.2560 to MTX [16]: bind to MTX
- binding of LMJF.30.2970 (GAPDH) to MTX [17]: bind to MTX
